Results: patent US7863324B2, “Chroman-derived compounds for the treatment of cancer” (Wisconsin Alumni Research Foundation, priority 2003, dated 2011)
Values joined by “and” are separate entries in the source; they are usually repeats but may differ in a detail not shown here. Equal entries are not always repeated. “Also recorded” adds a separate entry of the source. Where two headings read alike, the source gives them in different places.

Experiments:
[1] = molecular target: T1, androgen receptor in LNCaP cells (functional mutant AR) (Homo sapiens, UniProt P10275, T878A); assay: Androgen receptor binding competition assay (3H-R1881) in LNCaP cells
T1 construct: host or cells: LNCaP
T1 sequence (P10275 1-920 T878A): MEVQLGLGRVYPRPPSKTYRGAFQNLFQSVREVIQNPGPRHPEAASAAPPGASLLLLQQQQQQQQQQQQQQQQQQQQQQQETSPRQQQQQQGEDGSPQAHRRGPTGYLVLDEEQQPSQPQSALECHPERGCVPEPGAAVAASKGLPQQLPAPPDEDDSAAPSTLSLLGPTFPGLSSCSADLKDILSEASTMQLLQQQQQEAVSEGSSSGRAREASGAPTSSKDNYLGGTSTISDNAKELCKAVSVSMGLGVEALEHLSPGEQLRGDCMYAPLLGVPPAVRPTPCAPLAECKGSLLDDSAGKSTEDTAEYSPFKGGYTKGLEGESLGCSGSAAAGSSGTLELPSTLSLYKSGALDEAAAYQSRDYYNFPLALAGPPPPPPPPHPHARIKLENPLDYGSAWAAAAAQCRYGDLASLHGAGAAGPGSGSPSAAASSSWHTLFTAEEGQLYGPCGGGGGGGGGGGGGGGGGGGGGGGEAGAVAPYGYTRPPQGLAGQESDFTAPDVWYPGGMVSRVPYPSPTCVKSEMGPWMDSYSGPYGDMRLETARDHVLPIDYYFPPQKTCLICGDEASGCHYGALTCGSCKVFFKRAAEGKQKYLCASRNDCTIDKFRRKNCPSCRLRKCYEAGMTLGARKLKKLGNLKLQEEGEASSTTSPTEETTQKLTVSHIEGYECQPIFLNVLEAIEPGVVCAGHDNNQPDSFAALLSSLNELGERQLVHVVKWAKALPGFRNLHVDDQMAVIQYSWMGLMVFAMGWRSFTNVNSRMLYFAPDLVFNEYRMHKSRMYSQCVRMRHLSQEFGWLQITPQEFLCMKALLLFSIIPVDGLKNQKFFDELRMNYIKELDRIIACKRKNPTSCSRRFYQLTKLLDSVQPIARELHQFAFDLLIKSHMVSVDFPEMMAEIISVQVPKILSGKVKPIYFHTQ
Experimental: (§1) Androgen receptor binding competition assay. An androgen receptor binding competition assay was performed as previously described (22). LNCaP or LAPC4 prostate carcinoma cells were plated in 12-well tissue culture dishes (Costar, Corning, N.Y.) at 3.0×10^5 cells per well in phenol-red free DMEM/CSS 3 d prior to analysis. For competitor analysis, DMEM/CSS was removed by aspiration and replaced with 1 mL of phenol-red free DMEM containing 1 nM ^3H-R1881, 1 μM triamcinolone acetonide, and competitor at the specified concentrations for 2 h at 37° C. in a 5% CO2 incubator. […] Cells were washed twice with 1 mL phenol red-free DMEM and placed in 8.0 mL of ScintiVerse II Scintillation Cocktail (Fisher Scientific, Pittsburgh, Pa.) for determination of radioactivity (i.e., dpm) using a Beckman LS 6000TA Liquid Scintillation System (Beckman Instruments Inc., Fullerton, Calif.).

[2] = test system: AR protein levels in LNCaP cells; assay: Immunoblot analysis of AR protein levels; format: cell-based, human; details: 30 μM compound, 5 d, medium with 5% serum
Experimental: Immunoblot analysis of AR protein levels. LNCaP cells were plated at a density of 1×10^6 cells per 100 mm cell culture plate in 10 ml of DMEM/FBS and maintained in incubators at 37° C. in 5% CO2. […] Membranes were then incubated with a secondary horseradish peroxidase-conjugated anti-mouse antibody (Amersham Pharmacia Biotech, Piscataway, N.J.) and analyzed using the Enhanced Chemiluminescence Plus reagent (Amersham Pharmacia Biotech). Autoradiograms were prepared by exposing the blots to BioMax Light X-ray film (Eastman Kodak Co., Rochester, N.Y.) and developed using a CURIX 60 CP Processor (Agfa, Ridgefield Park, N.J.).

[3] = test system: LNCaP cells; assay: Cell growth analysis (Hoechst DNA assay), LNCaP; format: cell-based, human; details: 4 d
Experimental: (§2) Cell growth and viability analyses. Five thousand LNCaP or LAPC4 cells were plated in each well of 96-well plates (Costar) in 100 μl of DMEM/CSS. Two to 3 d after plating, cells were treated by adding 100 μl of DMEM/CSS containing 2× the concentration of the specified treatment to each well. Four d after treatment, the relative cell number was estimated by the determining DNA concentration of each well using a Hoechst-based fluorescence DNA assay, as previously described (23). Growth analysis with DU145 cells was performed similar to those with LNCaP and LAPC4 cells except DUI45 cells were initially seeded at 500 cells per well. Cell viability was determined by trypan blue exclusion and quantified by light microscopic analysis using a hemacytometer.

[4] = test system: PSA secretion from LNCaP cells; assay: Androgen-induced PSA secretion from LNCaP cells; format: cell-based, human; details: 48 h
Experimental: Determination of secreted PSA levels. LNCaP cells were cultured in 96 well plates (Costar) at 5,000 cells per well in DMEM/CSS 1 d before treatment. Forty-eight h after treatment, PSA levels in cell culture media were determined using the Tandem-MP PSA kit (Beckman Coulter, Inc.) according to manufacturer's instructions. PSA levels were normalized to DNA levels as determined using a Hoechst-based fluorescence DNA assay (23).

[5] = Experimental: The oral toxicity of PMCol was determined in 6 month-old male FVB mice. A single high oral dose of 1000 mg/kg PMCol in sesame oil was administered to 4 mice by gavage. Four control mice received only sesame oil by gavage (vehicle control). […] In a second study, four 6 month-old male FVB mice received 200 mg/kg PMCol daily in sesame oil by gavage for 10 days. Three mice receiving only sesame oil (vehicle control) were used as controls. Body weights were determined daily and all mice were autopsied to examine gross organ changes on day 11.
[6] = molecular target: androgen receptor in LAPC4 cells (normal human AR) (Homo sapiens, UniProt P10275); assay: Androgen receptor binding competition assay (3H-R1881) in LAPC4 cells
Sequence of androgen receptor in LAPC4 cells (normal human AR) (P10275 whole entry): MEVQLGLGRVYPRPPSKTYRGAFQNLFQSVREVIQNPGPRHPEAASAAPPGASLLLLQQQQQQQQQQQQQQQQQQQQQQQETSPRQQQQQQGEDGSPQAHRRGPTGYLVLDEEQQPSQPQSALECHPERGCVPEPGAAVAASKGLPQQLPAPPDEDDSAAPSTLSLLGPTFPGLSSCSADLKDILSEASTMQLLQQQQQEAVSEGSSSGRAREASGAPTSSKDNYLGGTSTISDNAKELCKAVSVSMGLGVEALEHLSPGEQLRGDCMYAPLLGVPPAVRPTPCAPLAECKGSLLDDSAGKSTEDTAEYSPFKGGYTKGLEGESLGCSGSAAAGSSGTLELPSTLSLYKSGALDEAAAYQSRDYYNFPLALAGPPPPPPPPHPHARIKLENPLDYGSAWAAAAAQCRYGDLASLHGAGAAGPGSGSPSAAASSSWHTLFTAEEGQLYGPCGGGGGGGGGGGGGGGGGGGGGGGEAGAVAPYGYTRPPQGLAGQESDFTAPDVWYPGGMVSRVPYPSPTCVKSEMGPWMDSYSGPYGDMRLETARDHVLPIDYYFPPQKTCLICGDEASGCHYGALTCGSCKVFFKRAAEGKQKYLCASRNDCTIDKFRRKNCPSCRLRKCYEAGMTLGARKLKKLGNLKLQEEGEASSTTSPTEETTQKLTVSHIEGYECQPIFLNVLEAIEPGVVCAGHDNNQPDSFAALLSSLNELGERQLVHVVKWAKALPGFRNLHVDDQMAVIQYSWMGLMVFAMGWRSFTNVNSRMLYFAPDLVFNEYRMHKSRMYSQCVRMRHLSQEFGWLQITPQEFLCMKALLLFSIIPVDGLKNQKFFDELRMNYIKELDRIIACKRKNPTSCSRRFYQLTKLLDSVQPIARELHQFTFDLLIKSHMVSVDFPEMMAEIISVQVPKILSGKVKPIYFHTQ
Experimental: as §1

[7] = test system: MMTV promoter activity in LNCaP cells; assay: Androgen-stimulated MMTV promoter luciferase reporter assay, LNCaP; format: cell-based, human; details: for decrease of R1881-induced luciferase expression: 24 h
Experimental: (§3) Androgen-stimulated promoter reporter assay analysis. LNCaP and LAPC4 prostate carcinoma cell lines were cultured in 12-well cell culture plates (Costar) in DMEM/CSS 2 to 3 d before transfection. Androgen-induced trancriptional activation was determined using a reporter construct with an MMTV promoter that regulates the expression of luciferase (24). LNCaP and LAPC4 cells were transfected with the MMTV/luciferase plasmid using the Effectene Transfection Reagent (Qiagen Inc., Valencia, Calif.), according to the manufacturer's instructions. Twenty-four h after transfection, cells were treated with R1881 with or without test reagents at the specified concentrations. Cell extracts were acquired 24 to 48 h after treatment by removing medium, washing 1× with PBS, and obtaining extract with 200 μL of 1× Reporter Lysis Buffer (Promega, Madison, Wis.). Luciferase activity was determined as previously described (24).

[8] = test system: LAPC4 cells; assay: Cell growth analysis (Hoechst DNA assay), LAPC4; format: cell-based, human; details: medium with 5% serum, 4 d
Experimental: as §2

[9] = Water solubility; format: physicochemical; details: cell culture studies
[10] = test system: MMTV promoter activity in LAPC4 cells; assay: Androgen-stimulated MMTV promoter luciferase reporter assay, LAPC4; format: cell-based, human
Experimental: as §3

[11] = test system: androgen receptor protein levels in LNCaP cells; details: cited from earlier work
[12] = general statement; cited from earlier work

## Cc1cc(C)c2c(c1C)OC(C)(C)CC2 [PMC, 2,2,5,7,8-pentamethylchroman, reference compound]
[1]; LNCaP cells, FIG. 2A
  anti-androgenic activity in 3H-R1881 competition compared with PMCol: less anti-androgenic activity than PMCol
[2]
  AR protein levels: did not result in altered AR protein levels; also recorded: not significantly altered
[3]; 30 μM compound
  shift of R1881-stimulated biphasic LNCaP growth curve: more modest, but significant, shift to the right
[3]; LNCaP, 30 μM compound
  R1881 concentration giving in control cells the growth response equivalent to that at 0.3 nM R1881 under treatment: 0.03 nM
[4]; 1.0 nM R1881, 30 μM compound
  decrease of R1881-stimulated PSA levels: 20%

## Cc1c(C)c2c(c(C)c1O)CCC(C)(C)O2 [PMCol, 2,2,5,7,8-pentamethyl-6-chromanol]
[5]; 200 mg/kg daily by gavage for 10 days, autopsy day 11
  gross changes in organs at autopsy: No gross changes in organs
[5]; mouse, in vivo
  change in animal body mass: no significant change
[5]; mouse, in vivo, po
  LD50: > 1000 mg/kg body weight
[5]; mouse, in vivo, po, 1000 mg/kg
  change in animal behavior or body mass: No significant change
[1]; LNCaP cells
  potency at competing for 3H-R1881 relative to bicalutamide (fold less potent): approximately 10 fold
[1]; LNCaP cells, against 1 nM 3H-R1881, estimated (FIG. 2A), read-out: IC50 for competition of 3H-R1881 binding
  IC50: ~10 µM and 7.2 µM
[1]; repeated studies, data not shown, read-out: IC50 values, repeated studies of competition for 3H-R1881 binding
  IC50: 5 to 15 µM
[6]; 30 μM compound
  decrease in 3H-R1881 binding: 75%
[6]; against 1 nM R1881
  IC50: ~10 µM
[2]
  AR protein levels: did not affect androgen receptor protein levels; also recorded: did not result in altered AR protein levels; also recorded: not significantly altered
[7]; 1.0 nM R1881, 25 μM compound
  decrease of R1881-induced luciferase expression: 50%
[7]; 1.0 nM R1881, 50 μM compound
  decrease of R1881-induced luciferase expression: 70%
[7]; no R1881
  MMTV promoter activity, compound alone: no effect
[3]; 1.0 nM R1881, 10 μM to 30 μM compound
  LNCaP cell growth in presence of growth inhibitory R1881: significant stimulation
[3]; 30 μM compound
  shift of R1881-stimulated biphasic LNCaP growth curve: shifted to the right
[3]; LNCaP, 0.1 nM R1881
  concentration significantly inhibiting R1881-stimulated LNCaP growth: ≥ 10 µM
[3]; LNCaP, 30 μM compound
  R1881 concentration giving in control cells the growth response equivalent to that at 0.3 nM R1881 under treatment: 0.03 nM
[3]; LNCaP, FIG. 3B
  concentration at which LNCaP cell growth was decreased: ≥ 40 µM
[3]; LNCaP, no R1881, 10 μM to 30 μM
  growth modulatory (AR agonist) activity in androgen-deficient media: no growth modulatory activity
[4]; 0.05 nM R1881, 30 μM compound
  inhibition of R1881-stimulated PSA release: completely inhibited
[4]; 1.0 nM R1881, 30 μM compound
  decrease of R1881-stimulated PSA levels: 80% and 81%
[4]; 30 μM, no R1881
  PSA release from LNCaP cells, compound alone: not affected
[4]; Homo sapiens, LNCaP, 0.05 nM R1881, 30 μM compound, read-out: inhibition of R1881-stimulated PSA release
  inhibition at 30 µM: 100%
[8]
  concentration required to significantly reduce cell growth: ≥ 60 µM
[9]
  water solubility: sufficiently water soluble to permit studies in cell culture

## C[C@]1(O)CC[C@H]2[C@@H]3CCC4=CC(=O)CCC4=C3C=C[C@@]21C [R1881, methyltrienolone, reference compound]
[7]; 1.0 nM R1881, 24 h
  increase in luciferase expression: 54 fold
[4]; 0.05 nM R1881
  increase in PSA levels: 3.1 fold
[4]; 1.0 nM R1881
  increase in PSA levels: 12 fold
[10]; 1.0 nM R1881
  increase in MMTV/LTR driven luciferase expression: 20 fold

## CC(O)(CS(=O)(=O)c1ccc(F)cc1)C(=O)Nc1ccc(C#N)c(C(F)(F)F)c1 (stereo not shown) [bicalutamide, reference compound]
[7]; 1.0 nM R1881, 1 μM compound
  decrease of R1881-stimulated luciferase expression: approximately 50%
[3]; LNCaP, 1 μM compound
  R1881 concentration giving in control cells the growth response equivalent to that at 0.3 nM R1881 under treatment: 0.03 nM
[4]; 1.0 nM R1881, 1 μM compound
  decrease of R1881-stimulated PSA levels: 43%
[10]; 1.0 nM R1881, 1 μM compound
  decrease of R1881-stimulated luciferase expression: approximately 50%

## COc1cc(/C=C/C(=O)CC(=O)/C=C/c2ccc(O)c(OC)c2)ccc1O [curcumin]
[11]
  effect on AR protein levels: down-regulate androgen receptor protein levels

## Cc1c(C)c2c(c(C)c1O)CC[C@@](C)(CCC[C@H](C)CCC[C@H](C)CCCC(C)C)O2 [vitamin E, α-tocopherol]
[12]
  solubility in water: practically insoluble in water
